Data reported in paper PMC6546852, “Carbonyl Reduction of Flubendazole in the Human Liver: Strict Stereospecificity, Sex Difference, Low Risk of Drug Interactions” (Frontiers in Pharmacology, 2019).

What was measured:
[1] = molecular target: T1, carbonyl reductase 1 (CBR1) (Homo sapiens, UniProt P16152); experiment: Inhibition of flubendazole reduction in pooled human liver cytosol by CBR1 inhibitors; format: biochemical; conditions: 10 µM FLU, NADPH, inhibitor 0-50 µM
T1 sequence (P16152 2-277 limits assumed): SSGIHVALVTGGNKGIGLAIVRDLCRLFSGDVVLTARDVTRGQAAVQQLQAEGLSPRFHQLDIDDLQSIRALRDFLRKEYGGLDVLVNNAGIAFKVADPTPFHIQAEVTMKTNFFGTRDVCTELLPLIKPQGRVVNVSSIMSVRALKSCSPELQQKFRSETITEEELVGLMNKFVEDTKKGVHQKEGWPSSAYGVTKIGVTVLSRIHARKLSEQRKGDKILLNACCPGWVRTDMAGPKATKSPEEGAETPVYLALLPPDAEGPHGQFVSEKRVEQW

human recombinant CBR1 = molecular target: T2, human recombinant CBR1 (Homo sapiens, UniProt P16152); experiment: Specific activity of human recombinant CBR1 toward substrates (NADPH consumption at 340 nm); format: biochemical; conditions: 10 µM substrate
T2 construct: purchased MyBioSource (San Diego, CA, USA)
T2 sequence (P16152 1-277): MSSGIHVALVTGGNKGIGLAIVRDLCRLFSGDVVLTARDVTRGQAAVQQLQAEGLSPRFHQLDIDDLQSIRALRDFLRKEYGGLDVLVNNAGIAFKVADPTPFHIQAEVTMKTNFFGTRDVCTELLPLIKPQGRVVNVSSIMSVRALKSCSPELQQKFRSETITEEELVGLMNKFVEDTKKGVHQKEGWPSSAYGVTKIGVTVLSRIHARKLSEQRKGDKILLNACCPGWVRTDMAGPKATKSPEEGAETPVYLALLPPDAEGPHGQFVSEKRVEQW
Experimental: The human recombinant CBR1 activity was assayed using a slight modification of previously published method (Mate et al., [2008]). The assay was performed in four replicates and was repeated three times. […] The activity of CBR1 was assessed using 10-μM concentration of the substrates, MEN, DOX, and FLU. The consumption of NADPH in the reaction mixture, which served for the assessment of the reductase activity, was determined spectrophotometrically at 340 nm at 37°C using the microplate reader Tecan Infinite M200.

[2] = Reduction of flubendazole in pooled human liver cytosol (chiral HPLC of FLUR enantiomers); format: in vitro ADME; conditions: human liver subcellular fractions
Experimental: Frozen pieces of liver were thawed at room temperature for up to 15 min and individual livers were homogenized in a 0.1 M sodium phosphate buffer, pH 7.4 at the ratio of 1:6 (v/v), using a Potter-Elvehjem homogenizer and sonication with Sonopolus (Bandelin, Germany). The suspension of the SW480 cells was homogenized using sonication only. The subcellular fractions were isolated by differential centrifugation of the homogenates (Gillette, [1971]) and stored at −80°C. Protein concentrations were assayed using the bicinchoninic acid (BCA) assay according to the manufacturer’s instructions (Sigma-Aldrich).
The cytosolic or microsomal fraction was incubated with FLU (10 μM). […]
Details concerning the HPLC analyses including validations were described in Nobilis et al. ([2008]). A chiral HPLC analysis was employed for the determination of reduced FLU (FLUR) enantiomers—(+)-FLUR and (−)-FLUR; concentrations of FLU, (+)-FLUR, and (−)-FLUR in the samples were determined using an internal standard method (I.S., albendazole). […] A tandem of an UV photodiode-array and a fluorescence detector was used for the determination of the abovementioned benzimidazole compounds.

[3] = Kinetics of flubendazole reduction ((+)-FLUR formation) in pooled human liver cytosol; format: in vitro ADME; conditions: for Clint (intrinsic clearance, V′max/K′m) / K’m (apparent Michaelis constant) / V’max (apparent maximal velocity of (+)-FLUR formation): pooled cytosol; for V’max (apparent maximal velocity of (+)-FLUR formation): 0-10 µM FLU
[4] = test system: doxorubicin reduction in pooled human liver cytosol; experiment: Flubendazole effect on doxorubicin reduction (doxorubicinol formation) in pooled human liver cytosol; format: biochemical; conditions: for Doxorubicinol—cytosol (percent of the residual activity): 20 µM doxorubicin, NADPH
[5] = test system: doxorubicin reduction in cytosol of cancer cells SW480; experiment: Flubendazole effect on doxorubicin reduction (doxorubicinol formation) in cytosol of cancer cells SW480; format: biochemical, human; conditions: for Doxorubicinol—SW480 (percent of the residual activity): 20 µM doxorubicin, NADPH
[6] = Water solubility of flubendazole; format: physicochemical; conditions: allowed only 10 µM as highest concentration in incubation mixtures
P-glycoprotein = test system: P-glycoprotein; parameters: method as in earlier work; conditions: ref Spagnuolo et al., 2010, Kralova et al., 2013, Michaelis et al., 2015, 2016; cited from earlier work

| Compound | IC50 [1] [µM] | Specific activity of human recombinant CBR1 toward the substrate (in words) (human recombinant CBR1) | Stereospecificity of carbonyl reduction (in words) [2] | Clint (intrinsic clearance, V′max/K′m) ([3]; NADH coenzyme) [min⁻¹] | K’m (apparent Michaelis constant) ([3]; NADH coenzyme) [µM] | V’max (apparent maximal velocity of (+)-FLUR formation) ([3]; NADH coenzyme) [nM/min] | Clint (intrinsic clearance, V′max/K′m) ([3]; NADPH coenzyme) [min⁻¹] | K’m (apparent Michaelis constant) ([3]; NADPH coenzyme) [µM] | V’max (apparent maximal velocity of (+)-FLUR formation) ([3]; NADPH coenzyme) [nM/min] | Hepatic intrinsic clearance (in words) ([3]; pooled human liver cytosol) | Doxorubicinol—cytosol (percent of the residual activity) ([4]; 2 µM flubendazole) [%] | Doxorubicinol—cytosol (percent of the residual activity) ([4]; 10 µM flubendazole) [%] | Inhibition of DOX reduction (in words) ([4]; human liver cytosol, FLU 2 and 10 µM) | Doxorubicinol—SW480 (percent of the residual activity) ([5]; 2 µM flubendazole) [%] | Doxorubicinol—SW480 (percent of the residual activity) ([5]; 10 µM flubendazole) [%] | Inhibition of DOX reduction (in words) ([5]; SW480 cytosol, FLU 2 and 10 µM) | Water solubility (in words) [6] | P-glycoprotein substrate (in words) (P-glycoprotein) |
| --- | --- | --- | --- | --- | --- | --- | --- | --- | --- | --- | --- | --- | --- | --- | --- | --- | --- | --- |
| O=c1cc(-c2ccc(O)c(O)c2)oc2cc(O)cc(O)c12 [LUT, luteolin] | 8.21 ± 3.71 | – | – | – | – | – | – | – | – | – | – | – | – | – | – | – | – | – |
| CC1=CC(=O)c2ccccc2C1=O [MEN, menadione] | 0.34 ± 0.26 | highest | – | – | – | – | – | – | – | – | – | – | – | – | – | – | – | – |
| COC(=O)Nc1nc2cc(C(=O)c3ccc(F)cc3)ccc2[nH]1 [flubendazole, [5-(4-fluorobenzoyl)-1H-benzimidazol-2-yl]-carbamic acid methyl ester] | – | significantly lower than to MEN | strictly stereospecific | 0.000012 | 13.34 ± 3.07 | 0.161 ± 0.024 | 0.000023 | 19.91 ± 2.49 | 0.466 ± 0.043 | very low | 98.0 ± 3.4 | 91.4 ± 4.9 | did not inhibit | 97.6 ± 3.4 | 96.7 ± 2.7 | did not inhibit | poor | not a substrate for P-glycoprotein |
